The source of these data is patent US6262073A, “Pharmaceutical methods of use of 5-substituted and 5,5 disubstituted-3,4-dihydroxy-2(5H)-furanones” (Oxis International Inc., priority 2000, dated 2001).

The test system of experiment [1] is Lipid peroxidation (rat liver microsomes). Put plainly: Lipid peroxidation screen (LPO), CCl4-induced, liver microsomes. To be noted: 300 μM. The format is biochemical. How it is done: (§1) The compounds of the invention were screened for their anti-inflammatory activity using a series of in vitro tests the details of which are given below. The activity of various compounds against 5-lipoxygenase, cycloxygenase-1, cycloxygenase-2 and lipid peroxidase was evaluated. Results of the screening procedures are included in TABLE I, and the activity against 5-lipoxygenase at a test concentration of 1 μM in Table II.
Lipid peroxidation is a consequence of various stimuli, including reactive free radicals. Polyunsaturated fatty acids associated with plasma membranes are degraded due to enzymatic induction by reactive agents such as CCl4, leading to cellular damage. Briefly, microsomes are prepared from rat livers and the protein concentration is determined according to the method of D. Mansuy et al., Biochem. Biophys. Res. Comm. 135:1015-1021(1986). A reaction mixture consisting of 2 mg of the microsomal preparation, an NADPH generating system, 20 mM CCl4 and test compound are incubated for 12 minutes at 37° C. The reaction is terminated by the addition of a mixture of thiobarbituric acid and trichloroacetic acid. The absorbance is read at 535 nm and is proportional to the concentration of malondialdehyde. Compounds are screened at 300 μM.
(Liver microsomes are a subcellular fraction often used to study metabolism.)

In experiment [2] the target is T1, Cyclooxygenase-2 (prostaglandin H synthetase-2) from sheep placenta (Ovis aries, UniProt P79208).
T1 construct: cyclooxygenase-2 from sheep placenta; from tissue; host or cells: sheep placenta
T1 sequence (P79208 17-603): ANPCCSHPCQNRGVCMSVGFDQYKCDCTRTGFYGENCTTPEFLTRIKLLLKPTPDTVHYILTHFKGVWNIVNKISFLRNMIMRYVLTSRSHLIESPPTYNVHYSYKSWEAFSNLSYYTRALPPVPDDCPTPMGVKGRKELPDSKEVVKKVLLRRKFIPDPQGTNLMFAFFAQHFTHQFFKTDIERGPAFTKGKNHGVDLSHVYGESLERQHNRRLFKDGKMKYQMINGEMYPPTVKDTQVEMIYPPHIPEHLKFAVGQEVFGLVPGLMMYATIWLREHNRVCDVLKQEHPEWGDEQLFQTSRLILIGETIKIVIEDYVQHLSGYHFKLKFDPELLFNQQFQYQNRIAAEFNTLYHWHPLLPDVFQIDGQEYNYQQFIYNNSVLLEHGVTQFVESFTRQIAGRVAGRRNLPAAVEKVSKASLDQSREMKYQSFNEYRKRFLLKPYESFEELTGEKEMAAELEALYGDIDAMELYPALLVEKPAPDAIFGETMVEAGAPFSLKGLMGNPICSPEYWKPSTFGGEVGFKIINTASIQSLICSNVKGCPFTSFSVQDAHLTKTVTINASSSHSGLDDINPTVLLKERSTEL
The experiment in a line: Cyclooxygenase-2 screen (COX-2). The format is biochemical. Conditions: read-out: COX-2 percent inhibition. How it is done:
as §1
Cyclooxygenase-2, also known as prostaglandin H synthetase-2, catalyzes the rate- limiting step in the synthesis of inflammatory prostaglandins. In this reaction cyclooxygenase-2 catalyzes the oxygenation of unesterified precursors to form cyclic endoperoxide derivatives, including prostaglandin H. Briefly, cyclooxygenase-2 from sheep placenta, 14 μg/assay tube, is incubated with arachidonic acid (500 μM) for 1.5 minutes at 27° C. in the absence or presence of test compounds according to the methods of A. T. Evans, et al., Biochem Pharm. […] Res. Comm. […] Compounds are screened at 300 μM.

In experiment [3] the target is T2, Cyclooxygenase-1 (cyclooxygenase from ram seminal vesicles) (Ovis aries, UniProt P05979).
T2 construct: cyclooxygenase from ram seminal vesicles; from tissue; host or cells: ram seminal vesicles
T2 sequence (P05979 25-600): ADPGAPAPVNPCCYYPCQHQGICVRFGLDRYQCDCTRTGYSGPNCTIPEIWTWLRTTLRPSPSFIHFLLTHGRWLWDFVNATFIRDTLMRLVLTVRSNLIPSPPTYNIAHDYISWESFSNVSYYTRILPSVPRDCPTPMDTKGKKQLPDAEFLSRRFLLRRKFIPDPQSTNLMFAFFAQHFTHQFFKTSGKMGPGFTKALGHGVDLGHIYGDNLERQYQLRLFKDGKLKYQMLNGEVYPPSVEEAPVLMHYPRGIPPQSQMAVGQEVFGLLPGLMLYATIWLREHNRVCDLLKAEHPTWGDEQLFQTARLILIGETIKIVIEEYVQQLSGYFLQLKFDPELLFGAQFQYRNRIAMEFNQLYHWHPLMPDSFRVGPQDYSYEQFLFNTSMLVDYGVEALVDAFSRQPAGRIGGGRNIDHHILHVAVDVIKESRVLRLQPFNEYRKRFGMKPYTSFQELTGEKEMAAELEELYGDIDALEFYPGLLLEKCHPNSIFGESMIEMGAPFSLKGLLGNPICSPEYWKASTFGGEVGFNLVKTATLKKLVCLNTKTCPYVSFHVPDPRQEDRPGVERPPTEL
Put plainly: Cyclooxygenase-1 screen (COX-1). The format is biochemical. Conditions: 300 μM. How it is done: as §1
Cyclooxygenase-1 is involved in the formation of prostaglandins and thromboxane via the oxidative metabolism of arachidonic acid. Briefly, cyclooxygenase from ram seminal vesicles is incubated with arachidonic acid (100 μm) for 2 minutes at 37° C. in the presence or absence of test compounds according to the methods of A. T. Evans et al., Biochem. Pharm. 36:2035-2037(1987) and R. Boopathy et al., Biochem J. 239:371-377 (1968). The assay is terminated by the addition of trichioroacetic acid and cyclooxygenase activity is determined by reading the absorbance at 530 nm. […]

For experiment [4], the target named is T3, 5-Lipoxygenase (crude enzyme preparation from rat basophilic leukemia cells, RBL-1) (Rattus norvegicus, UniProt P12527).
T3 construct: crude enzyme preparation from rat basophilic leukemia cells (RBL-1); endogenous in cells; host or cells: rat basophilic leukemia cells (RBL-1)
T3 sequence (P12527 1-673): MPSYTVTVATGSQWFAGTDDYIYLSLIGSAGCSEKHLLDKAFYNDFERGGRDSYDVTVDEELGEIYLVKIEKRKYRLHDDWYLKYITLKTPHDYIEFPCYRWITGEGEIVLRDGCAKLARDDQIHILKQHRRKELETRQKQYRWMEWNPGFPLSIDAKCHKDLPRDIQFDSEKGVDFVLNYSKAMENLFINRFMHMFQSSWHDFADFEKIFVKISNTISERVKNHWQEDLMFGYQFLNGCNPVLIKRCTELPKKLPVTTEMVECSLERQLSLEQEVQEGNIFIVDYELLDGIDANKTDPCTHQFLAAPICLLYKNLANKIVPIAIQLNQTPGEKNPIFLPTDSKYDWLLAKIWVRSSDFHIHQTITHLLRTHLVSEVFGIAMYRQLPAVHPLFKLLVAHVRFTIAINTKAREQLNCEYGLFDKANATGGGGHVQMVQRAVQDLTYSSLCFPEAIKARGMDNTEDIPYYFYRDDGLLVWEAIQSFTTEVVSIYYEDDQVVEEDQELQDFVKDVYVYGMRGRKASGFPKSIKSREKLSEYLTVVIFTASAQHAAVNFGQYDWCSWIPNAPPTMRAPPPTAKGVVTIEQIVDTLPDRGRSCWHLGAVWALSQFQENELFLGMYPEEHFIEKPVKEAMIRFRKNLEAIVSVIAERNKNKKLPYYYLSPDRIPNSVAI
Put plainly: 5-Lipoxygenase screen (5-LO), 5-HETE by RIA. The format is biochemical. To be noted: for inhibition at 30 µM: read-out: 5-LO percent inhibition; for inhibition at 1 µM: read-out: Percent inhibition of 5-LO. The procedure: as §1
5-Lipoxygenase catalyzes the oxidative metabolism of arachidonic acid to […] (5-HETE), the initial reaction leading to the formation of the leukotrienes. Briefly, the testing procedure utilizes a crude enzyme preparation from rat basophilic leukemia cells (RBL-1) according to the methods of T. Shimuzu et al. Pro. […] Test compounds are pre-incubated with the enzyme preparation for 5 minutes at room temperature and the reaction is initiated by the addition of arachidonic acid. Following an 8 minute incubation at room temperature, the reaction is terminated by the addition of citric acid and concentrations of 5-HETE are determined by RIA. Compounds are screened at 30 μM.

For experiment [5], the system named is Nuclear Factor-kappa B (NF-κB). Put plainly: NF-κB lacZ (κB-Z) reporter assay in transfected Jurkat cells stimulated with A23187 and PMA. The format is cell-based, human. How it is done:
The human T lymphoid cell line Jurkat was transfected with a response element lacZ reporter in which transcription of the β-galactosidase gene is directed by the binding site for the NF-κB transcription factor. […] At the end of the incubation, the cells are spun down and resuspended in the buffer and FDG (fluorescein di-β-D-galactopyranoside) solution. The covered plates are further incubated in the dark for 16 hours at 25° C. […] Compounds were screened at 10 μM.

As usually defined, the inhibition is the drop in the measured response relative to a control, in per cent. `O=C1OC(CCOc2ccc(-c3ccccc3)cc2)C(O)=C1O` (stereo not shown) [Example 22, 5-[2-((1,1'-Biphenyl)-4-oxy)ethyl]-3,4-dihydroxy-2(5H)-furanone] had an LPO percent inhibition in experiment [1] of 74%. The inhibition at 300 µM in experiment [2] was determined as 10%. Besides, the COX-1 percent inhibition in experiment [3] came out at 18%. For the same compound, in experiment [4], the inhibition at 30 µM is 99%. In experiment [4] (test conc. 1 μM (Table II)), the inhibition at 1 µM amounted to 55%.

Compound `O=C1OC(CCOc2ccc3oc4ccccc4c3c2)C(O)=C1O` (stereo not shown) [Example 17, 5-[2-(Dibenzofuran-2-oxy)ethyl]-3,4-dihydroxy-2(5H)-furanone] returned an LPO percent inhibition in experiment [1] of 74%. In experiment [2], the inhibition at 300 µM was found to be 21%. In experiment [3], this compound registered a COX-1 percent inhibition of 17%. Moreover, the inhibition at 30 µM in experiment [4] amounted to 99%. In experiment [4] (test conc. 1 μM (Table II)), the inhibition at 1 µM came out at 60%.

In general, IC50 refers to the concentration needed to halve the response being measured. Low readings indicate greater potency, high ones weaker potency. `O=C1OC(CCC#Cc2cc(Cc3ccc(F)cc3)cs2)C(O)=C1O` (stereo not shown) [Example 36, 3,4-Dihydroxy-5-[2-(4-(4-fluorophenylmethyl)thiophene)-(3-butynyl)]-2(5H)-furanone]: the NF-κB percent inhibition in experiment [5] (10 μM, κB-Z Jurkat cells, A23187 and PMA (Table III)) is 61%. Further, the figures for the IC50 in experiment [5] (Table III) and in experiment [4] (Table II) were 6 µM and 0.16 µM, respectively. Moreover, the 5-LO percent inhibition in experiment [4] (Table I cell printed "@1" instead of the 30 μM of the head) is 85%. For the same compound, the “Percent inhibition of 5-LO” value in experiment [4] (test conc. 1 μM (Table II)) was determined as 91%.

On to `O=C1OC(CCN2C(=O)c3cccc4cccc(c34)C2=O)C(O)=C1O` (stereo not shown) [Example 19, 3,4-Dihydroxy-5-[2-(1,8-naphthalimide)-N-ethyl]-2(5H)-furanone], for which the LPO percent inhibition in experiment [1] is reported as 68%. Moreover, in experiment [2], the inhibition at 300 µM came out at 2%. In experiment [3], the COX-1 percent inhibition turned out to be 9%. Further, the inhibition at 30 µM in experiment [4] is 86%.

In experiment [1], `CC1(c2ccc(Cl)cc2)OC(=O)C(O)=C1O` (stereo not shown) [Example 4, 5-(4-Chlorophenyl)-3,4-dihydroxy-5-methyl-2(5H)-furanone] displayed an LPO percent inhibition of 54%. Besides, the inhibition at 300 µM in experiment [2] is 24%. The compound further displayed a COX-1 percent inhibition in experiment [3] of 2%. Besides, in experiment [4], the inhibition at 30 µM amounted to 2%.

As for `Cc1ccccc1C#CCCC1OC(=O)C(O)=C1O` (stereo not shown) [Example 28, 3,4-Dihydroxy-5-[(4-(2-methyl)phenyl)-3-butynyl]-2(5H)-furanone], the LPO percent inhibition in experiment [1] was found to be 61%. For the same compound, in experiment [2], the inhibition at 300 µM is 15%. The compound also had a COX-1 percent inhibition in experiment [3] of 4%. Further, in experiment [4], the inhibition at 30 µM came to 58%.

For `O=C1OC(CCOc2ccccc2Cc2ccccc2)C(O)=C1O` (stereo not shown) [Example 21, 3,4-Dihydroxy-5-[2-(diphenylmethane-2-oxy)ethyl]-2(5H)-furanone], the LPO percent inhibition in experiment [1] is on record as 68%. In addition, the inhibition at 300 µM in experiment [2] was 10%. In addition, the COX-1 percent inhibition in experiment [3] is 12%. For the same compound, in experiment [4], the inhibition at 30 µM is 101%. In addition, in experiment [4] (test conc. 1 μM (Table II)), the inhibition at 1 µM was found to be 62%.

As for `O=C1OC(CCC#Cc2ccccc2)C(O)=C1O` (stereo not shown) [Example 27, 3,4-Dihydroxy-5-[(4-phenyl)-3-butynyl]-2(5H)-furanone], the LPO percent inhibition in experiment [1] is recorded as 59%. Besides, the inhibition at 300 µM in experiment [2] turned out to be 20%. Further, in experiment [3], the COX-1 percent inhibition was found to be 5%. In addition, in experiment [4], the inhibition at 30 µM was determined as 42%.

In turn, `CCCCCSCc1ccccc1C#CCCC1OC(=O)C(O)=C1O` (stereo not shown) [Example 34, 3,4-Dihydroxy-5-[(4-(2-(1-pentylthio)methyl)phenyl)-3-butynyl]-2(5H)-furanone] registered an LPO percent inhibition in experiment [1] of 63%. Further, the inhibition at 300 µM in experiment [2] was 43%. Also, the COX-1 percent inhibition in experiment [3] was determined as 67%. The inhibition at 30 µM in experiment [4] stood at 92%.

`CCCSCc1ccccc1C#CCCC1OC(=O)C(O)=C1O` (stereo not shown) [Example 33, 3,4-Dihydroxy-5-[(4-(2-(propylthio)methyl)phenyl)-3-butynyl]-2(5H)-furanone] yielded an LPO percent inhibition in experiment [1] of 74%. For the same compound, in experiment [2], the inhibition at 300 µM worked out at 20%. The same compound registered a COX-1 percent inhibition in experiment [3] of 37%. The inhibition at 30 µM in experiment [4] stood at 84%.

Take `O=C1OC(CCSc2cccc3ccccc23)C(O)=C1O` (stereo not shown) [Example 25, 3,4-Dihydroxy-5-[2-(naphthyl-1-thio)ethyl]-2(5H)-furanone]: in experiment [1], the LPO percent inhibition is 74%. For the same compound, in experiment [2], the inhibition at 300 µM came out at 19%. Further, the COX-1 percent inhibition in experiment [3] came out at 6%. The inhibition at 30 µM in experiment [4] worked out at 102%. The inhibition at 1 µM in experiment [4] (test conc. 1 μM (Table II)) was found to be 56%.
